Measurements taken from patent publication US20140072584A1, “NOVEL PHARMACEUTICAL USE OF BENZOIC ACID DERIVATIVES” (priority 2010, published 2014).

Key:
[1] = system: BN donor transplanted rat hearts; assay: Heart transplantation model, BN rats as donor, LEW-1A rats as recipient, oral administration; type: in vivo; settings: oral 500 mg/kg/day, four weeks; n=6
Method: b) Heart Transplantation Animal Model with BN Rats as Donor and LEW-1A Rats as Recipient:
BN rats were used as donors; donors hearts after being isolated were preserved in saline at 0-4° C. […] The donor's aorta and the recipient's abdominal aorta were sutured up with 8-0 Prolene vascular threads, and the donor's pulmonary artery and the recipient's vena cava were sutured up with 8-OProlene vascular threads. When blood vessels were opened, the rat's heart would immediately resume beating.
(§1) Observation parameters: after the abdomen was closed, palpation was used to check the beating of a transplanted rat heart, to determine graft survival period. That transplanted heart stops beating within 3 weeks was considered as having acute rejection, that transplanted heart stops beating after one month was considered as having chronic rejection, and that transplanted heart beats normally for more than three months was considered as having immune tolerance.
Experiment Methods: 12 rats from the experiment model established by method b) BN rats as donors and LEW-1A rats as recipients were used and divided into study and control groups, 6 rats for each group. […]

[2] = after oral administration, cited from earlier work
[3] = system: LEW-1W donor transplanted rat hearts; assay: Heart transplantation model, LEW-1W rats as donor, LEW-1A as recipient, oral administration; type: in vivo; settings: oral 500 mg/kg/day, four weeks; n=24
Method: a) Heart Transplantation Animal Model with LEW-1W Rats as Donor, LEW-1a as Recipient:
LEW-1W rats were used as donors; donors hearts after being isolated were preserved in saline at 0-4° C. […] The donor's aorta and the recipient's abdominal aorta were sutured up with 8-0 Prolene vascular threads, and the donor's pulmonary artery and the recipient's vena cava were sutured up with 8-0 Prolene vascular threads. When blood vessels were opened, the rat's heart would immediately resume beating, (please see Guillonneau C, Hill M, Hubert F X, Chiffoleau E, Hervé C, Xian-Liang Li, et al. CD40Ig treatment results in allograft acceptence mediated by CD8+CD45RClow T cells, IFN-γ and indoleamine 2,3 dioxygenase. Journal Clinical Investagtion. 2007; 117 (4): 1096-1106).
as §1, with “tolerance. […]” for “tolerance.”

CD4+ effector cells = assay: Mixed lymphocyte culture, CFSE proliferation of effector cells by flow cytometry; type: cell-based, rat; settings: 4 days culture
Source text: Experiment method: From bodies of untreated rats (LEW-1A rats in Example 1), splenocytes were extracted according to the splenocytes extraction method described in Section 2.2.1. Splenocytes were fluorescence-labeled for TCR, CD4 and CD25, and by flow cytometry cell sorter TCR+CD4+CD25−cells were collected as CD4+ effector cells. Splenocytes after the removal of T-lymphocytes (TCR+cells), B cell lymphocytes (CD45R+cells) and NK cells (3.2.3+cells) by immuno-magnetic beads, were marked using fluorescent antibodies for TCR, CD11c and CD123 (antibody concentration was 5-10 μg/ml). By flow cytometry cell sorter, TCR-CD11c−CD123+cells were collected as pDC, and TCR-CD11c+CD123−cells were collected as mDC.
Well separated CD4+ effector cells and pDC or mDC and defined regulatory cells, respectively in a proportion of 4/4/1 were added into a 96-well culture plate, 200 ul culture medium was added and they were cultured in a 5% CO2 incubator at 37 degrees Celsius for 4 days. During the cultivation, cinnamoyl anthranilic acid (1.2-150 μmol) or control DMSO solvent was added. Cells were stain labeled after the four days, and the proliferation of effector cells was analyzed by a flow cytometer.
CD4+ effector cells before the mixed culture were marked by living organism dye CFSE (10*6 cells/ml in 5 μM CFSE). Labeled CD4+ effector cells were added to a mixed lymphocyte cultivation test, were marked again using fluorescent antibodies (TCR, CD4) after four days, and then were analyzed by a flow cytometer (TCR+CD4+gate) for effector cell proliferation.
Cinnamoyl anthranilic acid was added in different concentrations (150 μM, 75 μM, 37.5 μM, 18.7 μM, 9.35 μM, 4.7 μM, 2.35 μM, 1.2 μM). Cell stain labeling was conducted after 4 days of the culture, and the proliferation of effector cells was analyzed by a flow cytometer.

Compound: COc1ccc(/C=C/C(=O)Nc2ccccc2C(=O)O)cc1OC [cinnamoyl anthranilic acid]
- recipients overcame acute rejection [1]: 100%
- recipients with long-term survival with a state of induced immune tolerance [1]: 50%
- blood concentration at 48 h ([2]; 48 h): difficult to be detected
- plasma half-life [2]: 5 to 8.6 h
- time to peak plasma concentration [2]: 2 to 3 h
- tissue distribution [2]: bronchial and lung have the highest concentration
- recipients overcame acute rejection [3]: 92%
- recipients with long-term survival with a state of induced immune tolerance [3]: 42%
- effect on proliferation of CD4 effector T cells (CFSE) (CD4+ effector cells; 37.5 μM to 9.35 μM): dose-dependent inhibitory effect
- effect on activated CD4 effector cells at high concentrations (CD4+ effector cells; 150 μM and 75 μM): directly kill activated CD4 effector cells
- effect on proliferation of CD4 effector cells at low concentration (CD4+ effector cells; below 4.7 μM): did not show the inhibitory effect
